Read-outs that look alike come from different tables or passages of the source. Where a SMILES comes first, the peptide text is derived from it. Bridges are numbered along the chain shown (N, C = ends). [ ]: non-standard residue; d: D form. The star is where a group is joined. ξ: configuration not given here. Benzoyl(4-SiFtBu2) = CC(C)(C)[Si](F)(c1ccc(C(=O)*)cc1)C(C)(C)C; X1 = CC(C)(C)[Si](F)(c1ccc(C[N+](C)(C)CC(=O)*)cc1)C(C)(C)C; DO3AM = NC(=O)CN1CCN(CC(N)=O)CCN(CC(=O)*)CCN(CC(N)=O)CC1; ξW = NC(Cc1c[nH]c2ccccc12)C(=O)O; dDap = NC[C@@H](N)C(=O)O; ξF = NC(Cc1ccccc1)C(=O)O; ξD = NC(CC(=O)O)C(=O)O; ξDap = NCC(N)C(=O)O; ξC = NC(CS)C(=O)O
What was measured:
HSA = HSA (Homo sapiens, UniProt P02768); experiment: HSA binding by RIAC method (gel filtration, apparent molecular weight); format: in vitro ADME; conditions: HSA binding as apparent molecular weight, 700 μM HSA in PBS mobile phase
HSA, sequence (P02768 25-609): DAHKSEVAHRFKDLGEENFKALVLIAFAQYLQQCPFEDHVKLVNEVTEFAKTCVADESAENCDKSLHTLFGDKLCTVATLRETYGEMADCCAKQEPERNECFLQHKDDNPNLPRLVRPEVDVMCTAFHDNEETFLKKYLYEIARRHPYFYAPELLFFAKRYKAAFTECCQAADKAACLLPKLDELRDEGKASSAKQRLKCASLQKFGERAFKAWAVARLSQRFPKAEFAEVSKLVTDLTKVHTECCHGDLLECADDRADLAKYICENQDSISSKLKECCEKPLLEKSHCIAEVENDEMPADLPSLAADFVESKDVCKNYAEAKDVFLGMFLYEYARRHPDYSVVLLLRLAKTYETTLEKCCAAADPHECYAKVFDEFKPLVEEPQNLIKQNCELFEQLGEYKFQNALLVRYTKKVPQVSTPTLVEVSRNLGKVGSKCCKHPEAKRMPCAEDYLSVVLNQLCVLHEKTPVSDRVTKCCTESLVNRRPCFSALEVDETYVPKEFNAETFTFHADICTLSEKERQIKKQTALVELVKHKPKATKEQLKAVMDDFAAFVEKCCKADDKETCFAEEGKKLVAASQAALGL
Description: A gel filtration column Superdex 75 Increase 10/300 GL (GE Healthcare, Uppsala, Sweden) was beforehand calibrated following the producer's recommendations with a commercially available gel filtration calibration kit (GE Healthcare, Buckinghamshire, UK) comprising conalbumin (MW: 75 kDa), ovalbumin (44 kDa), carbonic anhydrase (29 kDa), ribonuclease A (13.7 kDa) and aprotinin (6.5 kDa) as reference proteins of known molecular weight. AMSEC experiments were conducted using a constant flow rate of 0.8 mL/min at rt. A solution of HSA in PBS at physiological concentration (700 μM) was used as the mobile phase. SST2 ligands were labelled as described with molar activities of 10-20 GBq/μmol. Probes of 1.0 MBq of the radioligand were injected directly from the labelling solution. HSA binding was expressed as an apparent molecular weight MW calculated from the retention time of the radioligand using the determined calibration curve.
For evaluation, experimentally determined retention times tR are first converted into elution volumes Ve by multiplying with the flow rate and thereafter converted into partition coefficients Kav following the equation
where V0 is the column void volume (8.027 mL) and Vc is the geometric column volume (24 mL). Using the equation given by the trend line plot of the column calibration
the apparent molecular weight MW is calculated as […]

SST2 = target: T1, SST2 (Homo sapiens, UniProt P30874); experiment: Determination of IC50: competitive binding against [125I]TOC on SST2-transfected CHO cells; conditions: [125I]TOC reference radioligand, 60 min room temperature
T1 construct: expressed in transfected cells; host or cells: CHO (Chinese hamster ovary) cells
T1 sequence (P30874 whole entry, species assumed): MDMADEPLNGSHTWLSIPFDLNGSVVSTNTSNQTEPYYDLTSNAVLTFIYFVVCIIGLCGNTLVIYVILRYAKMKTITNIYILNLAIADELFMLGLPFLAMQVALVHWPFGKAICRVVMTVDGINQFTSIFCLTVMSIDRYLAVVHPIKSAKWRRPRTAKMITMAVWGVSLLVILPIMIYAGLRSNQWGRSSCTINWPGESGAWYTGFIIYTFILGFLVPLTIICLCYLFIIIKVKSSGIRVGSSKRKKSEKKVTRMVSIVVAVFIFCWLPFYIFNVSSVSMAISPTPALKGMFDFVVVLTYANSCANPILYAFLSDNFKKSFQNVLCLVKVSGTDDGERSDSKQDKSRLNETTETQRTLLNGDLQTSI

[1] = Octanol-water distribution coefficient (logD pH 7.4) of the labeled tracer; format: physicochemical; conditions: n-octanol/PBS pH 7.4, room temperature
In short: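 About 1 MBq tracer partitioned in 1:1 PBS pH 7.4/n-octanol, mixed 3 min at room temperature, centrifuged 15000 g for 5 min. Both layers counted by gamma counter; at least six repeats.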

[2] = Biodistribution of 18F-labeled SST2 ligands in AR42J tumor-bearing mice; format: in vivo; conditions: female, CD1 nu/nu, mouse, iv, total radioactivity, 1 h post injection, tail vein
Description: All animal experiments were conducted in accordance with general animal welfare regulations in Germany and the institutional guidelines for the care and use of animals. To establish tumor xenografts, AR42J cells (5×10^6 cells/100 μL) were suspended in Dulbecco modified Eagle medium/Nutrition Mixture F-12 with Glutamax-1 (1:1) and inoculated subcutaneously onto the right shoulder of 8 weeks old, female CD1 nu/nu mice (Charles River, Sulzfeld, Germany). Mice were used for experiments when tumors had grown to a diameter of 5-9 mm (7-15 days after inoculation).
Approximately 0.5-2.0 MBq (0.05-0.25 nmol) of the ^18F-labeled SST2-ligands were injected into the tail vein of AR42J tumor-bearing female CD1 nu/nu mice and sacrificed after 1 h post injection (n=3-5). Selected organs were removed, weighted and measured in a γ-counter.
The Tables 4, 5, and 6 summarize the results of the in vivo mouse experiments. For all biodistribution studies, female CD1 nu/nu mice with AR42J tumor xenografts, were used and sacrificed 1 h post injection.

SMILES	HSA (HSA) [kDa]	IC50 (SST2) [nM]	LogDpH=7.4 [1]	further results
C[C@@H](O)[C@H](NC(=O)C1CSSCC(NC(=O)C(Cc2ccccc2)NC(=O)CNC(=O)CNC(=O)[C@@H](CCCN)NC(=O)C(CCCN)NC(=O)[C@@H](CNC(=O)CC[C@H](C(=O)O)N2CCN(CC(=O)O)CCN(CC(=O)O)CCN(CC(=O)O)CC2)NC(=O)C(CN)NC(=O)c2ccc([Si](F)(C(C)(C)C)C(C)(C)C)cc2)C(=O)N[C@@H](Cc2ccc(O)cc2)C(=O)NC(Cc2c[nH]c3ccccc23)C(=O)N[C@@H](CCCCN)C(=O)N[C@@H]([C@@H](C)O)C(=O)N1)C(=O)O (stereo partly shown) (natGa complex, metal not drawn) [[Ga]37]	17.60	4.66 ± 0.53	−1.92 ± 0.04	
C[C@@H](O)[C@H](NC(=O)C1CSSCC(NC(=O)C(Cc2ccccc2)NC(=O)CNC(=O)C(CC(=O)O)NC(=O)[C@@H](CC(=O)O)NC(=O)C(CNC(=O)CN2CCN(CC(=O)O)CCN(CC(=O)O)CCN(CC(=O)O)CC2)NC(=O)[C@@H](CN)NC(=O)c2ccc([Si](F)(C(C)(C)C)C(C)(C)C)cc2)C(=O)N[C@@H](Cc2ccc(O)cc2)C(=O)NC(Cc2c[nH]c3ccccc23)C(=O)N[C@@H](CCCCN)C(=O)N[C@@H]([C@@H](C)O)C(=O)N1)C(=O)O (stereo partly shown) (natGa complex, metal not drawn) [[Ga]39]	24.96	14.9 ± 1.22	−2.20 ± 0.05	
C[C@@H](O)[C@H](NC(=O)C1CSSCC(NC(=O)C(Cc2ccccc2)NC(=O)CNC(=O)CNC(=O)CNC(=O)C(CC(=O)O)NC(=O)[C@@H](CC(=O)O)NC(=O)C(CNC(=O)CN2CCN(CC(=O)O)CCN(CC(=O)O)CCN(CC(=O)O)CC2)NC(=O)[C@@H](CN)NC(=O)c2ccc([Si](F)(C(C)(C)C)C(C)(C)C)cc2)C(=O)N[C@@H](Cc2ccc(O)cc2)C(=O)NC(Cc2c[nH]c3ccccc23)C(=O)N[C@@H](CCCCN)C(=O)N[C@@H]([C@@H](C)O)C(=O)N1)C(=O)O (stereo partly shown) (natGa complex, metal not drawn) [[Ga]40]	19.25	3.61 ± 0.29	−2.24 ± 0.03	
C[C@@H](O)[C@H](NC(=O)C1CSSCC(NC(=O)C(Cc2ccccc2)NC(=O)CNC(=O)CNC(=O)[C@@H](CC(N)=O)NC(=O)C(CC(N)=O)NC(=O)[C@@H](CNC(=O)CC[C@H](C(=O)O)N2CCN(CC(=O)O)CCN(CC(=O)O)CCN(CC(=O)O)CC2)NC(=O)C(CN)NC(=O)c2ccc([Si](F)(C(C)(C)C)C(C)(C)C)cc2)C(=O)N[C@@H](Cc2ccc(O)cc2)C(=O)NC(Cc2c[nH]c3ccccc23)C(=O)N[C@@H](CCCCN)C(=O)N[C@@H]([C@@H](C)O)C(=O)N1)C(=O)O (stereo partly shown) (natGa complex, metal not drawn) [[Ga]41]	15.48	3.64 ± 0.64	−1.58 ± 0.05	
C[C@@H](O)[C@H](NC(=O)C1CSSCC(NC(=O)C(Cc2ccccc2)NC(=O)[C@@H](CC(N)=O)NC(=O)C(CC(N)=O)NC(=O)[C@@H](CC(=O)O)NC(=O)C(CC(=O)O)NC(=O)[C@@H](CNC(=O)CN2CCN(CC(=O)O)CCN(CC(=O)O)CCN(CC(=O)O)CC2)NC(=O)C(CN)NC(=O)c2ccc([Si](F)(C(C)(C)C)C(C)(C)C)cc2)C(=O)N[C@@H](Cc2ccc(O)cc2)C(=O)NC(Cc2c[nH]c3ccccc23)C(=O)N[C@@H](CCCCN)C(=O)N[C@@H]([C@@H](C)O)C(=O)N1)C(=O)O (stereo partly shown) (natGa complex, metal not drawn) [[Ga]42]	17.97	5.33 ± 0.78	−2.41 ± 0.05	
C[C@@H](O)[C@H](NC(=O)C1CSSCC(NC(=O)C(Cc2ccccc2)NC(=O)CNC(=O)CNC(=O)[C@@H](CC(=O)O)NC(=O)C(CC(=O)O)NC(=O)[C@@H](CNC(=O)CN2CCN(CC(N)=O)CCN(CC(N)=O)CCN(CC(N)=O)CC2)NC(=O)C(CN)NC(=O)c2ccc([Si](F)(C(C)(C)C)C(C)(C)C)cc2)C(=O)N[C@@H](Cc2ccc(O)cc2)C(=O)NC(Cc2c[nH]c3ccccc23)C(=O)N[C@@H](CCCCN)C(=O)N[C@@H]([C@@H](C)O)C(=O)N1)C(=O)O (stereo partly shown) [[Pb]36] ({Benzoyl(4-SiFtBu2)}-[ξDap][dDap](DO3AM)[ξD][dD]GG[ξF][ξC]Y[ξW]KT[ξC]T-OH; disulfide 8-13)	20.22	6.57 ± 0.32	−1.82 ± 0.05	tissue uptake at 1 h ([2]; AR42J tumor, AR42J tumor, read-out: Tumor % ID/g ± SD): 22.3 ± 3.85 %ID/g; tissue uptake at 1 h ([2]; adrenal glands, read-out: Adrenal glands % ID/g ± SD): 2 ± 0.27 %ID/g; tissue uptake at 1 h ([2]; blood, read-out: Blood % ID/g ± SD): 1.3 ± 0.21 %ID/g; tissue uptake at 1 h ([2]; bone, read-out: Bone % ID/g ± SD): 3.38 ± 0.7 %ID/g; tissue uptake at 1 h ([2]; heart, read-out: Heart % ID/g ± SD): 0.71 ± 0.09 %ID/g; tissue uptake at 1 h ([2]; intestine, read-out: Intestine % ID/g ± SD): 1.31 ± 0.21 %ID/g; tissue uptake at 1 h ([2]; kidneys, read-out: Kidneys % ID/g ± SD): 43 ± 6.22 %ID/g; tissue uptake at 1 h ([2]; liver, read-out: Liver % ID/g ± SD): 8.47 ± 1.23 %ID/g; tissue uptake at 1 h ([2]; lung, read-out: Lung % ID/g ± SD): 2.42 ± 0.5 %ID/g; tissue uptake at 1 h ([2]; muscle, read-out: Muscle % ID/g ± SD): 0.47 ± 0.08 %ID/g; tissue uptake at 1 h ([2]; pancreas, read-out: Pancreas % ID/g ± SD): 9.09 ± 1.79 %ID/g; tissue uptake at 1 h ([2]; spleen, read-out: Spleen % ID/g ± SD): 0.84 ± 0.17 %ID/g; tissue uptake at 1 h ([2]; stomach, read-out: Stomach % ID/g ± SD): 4.32 ± 0.81 %ID/g
C[C@@H](O)[C@H](NC(=O)C1CSSCC(NC(=O)C(Cc2ccccc2)NC(=O)CNC(=O)CNC(=O)[C@@H](CC(=O)O)NC(=O)C(CC(=O)O)NC(=O)[C@@H](CNC(=O)CN2CCN(CC(N)=O)CCN(CC(N)=O)CCN(CC(N)=O)CC2)NC(=O)C[N+](C)(C)Cc2ccc([Si](F)(C(C)(C)C)C(C)(C)C)cc2)C(=O)N[C@@H](Cc2ccc(O)cc2)C(=O)NC(Cc2c[nH]c3ccccc23)C(=O)N[C@@H](CCCCN)C(=O)N[C@@H]([C@@H](C)O)C(=O)N1)C(=O)O (stereo partly shown) [[Pb]38] (X1-[dDap](DO3AM)[ξD][dD]GG[ξF][ξC]Y[ξW]KT[ξC]T-OH; disulfide 7-12)	9.20	4.67 ± 0.73	−1.95 ± 0.03	

Reference: US20240317780A1, “RADIOPHARMACEUTICAL SOMATOSTATIN RECEPTOR LIGANDS AND PRECURSORS THEREOF” (Technische Universität München, priority 2021, published 2024)
